Measurements reported in US12208088B2 (Genentech, Inc., priority 2018, dated 2025).

molecular target: HPK1 (Homo sapiens (Human), UniProt Q92918); assay: HPK1 Lantha binding assay ("Lanth"); settings: binding assays; Morrison Ki fit
Outline: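 Ki values are from Morrison-equation fitting of 665/615 nm TR-FRET signals, taking enzyme level, tracer level and tracer Kd into account. The assay mix held HPK1 (2 nM), Eu-anti-GST antibody (2 nM) and Tracer222 (15 nM). Incubations were two 1 h steps at 23 °C, on 5-fold serial compound dilutions.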

HPK1, sequence (Q92918 1-346 limits assumed): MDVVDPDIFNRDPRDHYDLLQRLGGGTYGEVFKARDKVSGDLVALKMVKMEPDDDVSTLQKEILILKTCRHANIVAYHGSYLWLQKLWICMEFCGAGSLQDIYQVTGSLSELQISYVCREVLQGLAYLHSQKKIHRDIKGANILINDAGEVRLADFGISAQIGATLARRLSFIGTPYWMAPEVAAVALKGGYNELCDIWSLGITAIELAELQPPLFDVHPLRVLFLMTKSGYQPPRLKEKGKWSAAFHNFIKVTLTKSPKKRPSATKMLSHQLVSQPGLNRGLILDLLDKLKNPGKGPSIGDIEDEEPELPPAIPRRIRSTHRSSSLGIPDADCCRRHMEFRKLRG

| Compound | Ki |
| --- | --- |
| CC(=O)N1CC2(CNc3ncc(-c4ccc(N)c(C(=O)N(C)C)c4F)cc32)C1 [Compound 93, 3-(1-Acetyl-1′,2′-dihydrospiro[azetidine-3,3′-pyrrolo[2,3-b]pyridin]-5′-yl)-6-amino-2-fluoro-N,N-dimethylbenzamide] | 916 nM |
| CN(C)C(=O)c1c(N)ccc(-c2cnc3c(c2)C2(CN3)CC(=CC#N)C2)c1F (centres unmarked) [Compound 94a, (s,E)-6-Amino-3-(3-(cyanomethylene)-1′,2′-dihydrospiro[cyclobutane-1,3′-pyrrolo[2,3-b]pyridin]-5′-yl)-2-fluoro-N,N-dimethylbenzamide] | 73.6 nM |
| CN(C)C(=O)c1c(N)ccc(-c2cnc3c(c2)[C@]2(CN3)C[C@@H](CC#N)C2)c1F [Compound 95a, 6-Amino-3-((1r,3r)-3-(cyanomethyl)-1′,2′-dihydrospiro[cyclobutane-1,3′-pyrrolo[2,3-b]pyridin]-5′-yl)-2-fluoro-N,N-dimethylbenzamide] | 120 nM |
| CN(C)C(=O)c1c(N)ccc(-c2cnc3c(c2)[C@]2(CN3)C[C@@H](C#N)C2)c1F [Compound 96a] | 124 nM |
| CN(C)C(=O)c1c(N)ccc(-c2cnc3c(c2)[C@]2(CN3)C[C@@H](C(N)=O)C2)c1F [Compound 97a] | 50.7 nM |
| CN(C)C(=O)c1c(N)ccc(-c2cnc3c(c2)C2(CN3)CC(=CC(N)=O)C2)c1F (centres unmarked) [Compound 101, 6-Amino-3-(3-(2-amino-2-oxoethylidene)-1′,2′-dihydrospiro[cyclobutane-1,3′-pyrrolo[2,3-b]pyridin]-5′-yl)-2-fluoro-N,N-dimethylbenzamide] | 55.8 nM |
| CN(C)C(=O)c1c(N)ccc(-c2cnc3c(c2)[C@]2(CN3)C[C@H](CC(N)=O)C2)c1F [Compound 102a, 6-Amino-3-((1r,3r)-3-(2-amino-2-oxoethyl)-1′,2′-dihydrospiro[cyclobutane-1,3′-pyrrolo[2,3-b]pyridin]-5′-yl)-2-fluoro-N,N-dimethylbenzamide] | 67 nM |
| CN(C)C(=O)c1c(N)ccc(-c2cnc3c(c2Cl)C2(CCC(=CS(C)(=O)=O)C2)CN3)c1F (centres unmarked) [Compound 103, 6-Amino-3-(4′-chloro-3-((methylsulfonyl)methylene)-1′,2′-dihydrospiro[cyclopentane-1,3′-pyrrolo[2,3-b]pyridin]-5′-yl)-2-fluoro-N,N-dimethylbenzamide] | 24.1 nM |
| CN(C)C(=O)c1c(N)ccc(-c2cnc3c(c2Cl)C2(CCC(=CC#N)C2)CN3)c1F (centres unmarked) [Compound 104, 6-Amino-3-(4′-chloro-3-(cyanomethylene)-1′,2′-dihydrospiro[cyclopentane-1,3′-pyrrolo[2,3-b]pyridin]-5′-yl)-2-fluoro-N,N-dimethylbenzamide] | 13.1 nM |
| CN(C)C(=O)c1c(N)ccc(-c2cnc3c(c2Cl)[C@]2(CC[C@](O)(CC#N)C2)CN3)c1F [Compound 109a, 6-Amino-3-((1R,3R)-4′-chloro-3-(cyanomethyl)-3-hydroxy-1′,2′-dihydrospiro[cyclopentane-1,3′-pyrrolo[2,3-b]pyridin]-5′-yl)-2-fluoro-N,N-dimethylbenzamide] | 25.3 nM |
| CN(C)C(=O)c1c(N)ccc(-c2cnc3c(c2Cl)C2(CCC(=CC(N)=O)C2)CN3)c1F (centres unmarked) [Compound 110, 6-Amino-3-(3-(2-amino-2-oxoethylidene)-4′-chloro-1′,2′-dihydrospiro[cyclopentane-1,3′-pyrrolo[2,3-b]pyridin]-5′-yl)-2-fluoro-N,N-dimethylbenzamide] | 4.5 nM |
| CN(C)C(=O)c1c(N)ccc(-c2cnc3c(c2)[C@]2(CC[C@H](O)CC2)CN3)c1F [Compound 111a, 6-Amino-2-fluoro-3-((1s,4s)-4-hydroxy-1′,2′-dihydrospiro[cyclohexane-1,3′-pyrrolo[2,3-b]pyridin]-5′-yl)-N,N-dimethylbenzamide] | 48.3 nM |
| CN(C)C(=O)c1c(N)ccc(-c2cnc3c(c2)[C@]2(CC[C@@H](O)CC2)CN3)c1F [Compound 111b, 6-Amino-2-fluoro-3-((1r,4r)-4-hydroxy-1′,2′-dihydrospiro[cyclohexane-1,3′-pyrrolo[2,3-b]pyridin]-5′-yl)-N,N-dimethylbenzamide] | 172 nM |
| CN(C)C(=O)c1c(N)ccc(-c2cnc3c(c2Cl)C2(C=C(c4cccnc4)CC2)CN3)c1F (centres unmarked) [Compound 112, 6-Amino-3-(4′-chloro-3-(pyridin-3-yl)-1′,2′-dihydrospiro[cyclopentane-1,3′-pyrrolo[2,3-b]pyridin]-2-en-5′-yl)-2-fluoro-N,N-dimethylbenzamide] | 6.6 nM |
| COc1c(-c2ccc(N)c(C(=O)N(C)C)c2F)cnc2c1[C@]1(CC[C@@H](O)CC1)CN2 [Compound 113a, 6-Amino-2-fluoro-3-((1r,4r)-4-hydroxy-4′-methoxy-1′,2′-dihydrospiro[cyclohexane-1,3′-pyrrolo[2,3-b]pyridin]-5′-yl)-N,N-dimethylbenzamide] | 39 nM |
| COc1c(-c2ccc(N)c(C(=O)N(C)C)c2F)cnc2c1[C@]1(CC[C@H](O)CC1)CN2 [Compound 113b, 6-Amino-2-fluoro-3-((1s,4s)-4-hydroxy-4′-methoxy-1′,2′-dihydrospiro[cyclohexane-1,3′-pyrrolo[2,3-b]pyridin]-5′-yl)-N,N-dimethylbenzamide] | 15.1 nM |
| CN(C)C(=O)c1c(N)ccc(-c2cnc3c(c2Cl)[C@]2(CCNC(=O)C2)CN3)c1F [Compound 122a, (R)-6-Amino-3-(4′-chloro-2-oxo-1′,2′-dihydrospiro[piperidine-4,3′-pyrrolo[2,3-b]pyridin]-5′-yl)-2-fluoro-N,N-dimethylbenzamide] | 304 nM |
| CN(C)C(=O)c1c(N)ccc(-c2cnc3c(c2Cl)[C@@]2(CCNC(=O)C2)CN3)c1F [Compound 122b, (S)-6-Amino-3-(4′-chloro-2-oxo-1′,2′-dihydrospiro[piperidine-4,3′-pyrrolo[2,3-b]pyridin]-5′-yl)-2-fluoro-N,N-dimethylbenzamide] | 26 nM |
| CN(C)C(=O)c1c(N)ccc(-c2cnc3c(c2Cl)C2(CCC(CC#N)C2)CN3)c1F (centres unmarked) [Compound 130, 6-Amino-3-(4′-chloro-3-(cyanomethyl)-1′,2′-dihydrospiro[cyclopentane-1,3′-pyrrolo[2,3-b]pyridin]-5′-yl)-2-fluoro-N,N-dimethylbenzamide] | 4 nM |
| CN(Cc1cnn(C)c1)C(=O)c1cccc(-c2cnc3c(c2)C2(CC2)CN3)c1F [Compound 136, 3-(1′,2′-dihydrospiro[cyclopropane-1,3′-pyrrolo[2,3-b]pyridin]-5′-yl)-2-fluoro-N-methyl-N-((1-methyl-1H-pyrazol-4-yl)methyl)benzamide] | 15.9 nM |
| CCN(C(=O)c1cccc(-c2cnc3c(c2)C2(CC2)CN3)c1F)C1CCC1 [Compound 137, N-cyclobutyl-3-(1′,2′-dihydrospiro[cyclopropane-1,3′-pyrrolo[2,3-b]pyridin]-5′-yl)-N-ethyl-2-fluorobenzamide] | 34.1 nM |
| CN(CCC#N)C(=O)c1cccc(-c2cnc3c(c2)C2(CC2)CN3)c1F [Compound 138, N-(2-cyanoethyl)-3-(1,2′-dihydrospiro[cyclopropane-1,3′-pyrrolo[2,3-b]pyridin]-5′-yl)-2-fluoro-N-methylbenzamide] | 38.6 nM |
| CC(C)C1CN(C(=O)c2cccc(-c3cnc4c(c3)C3(CC3)CN4)c2F)C1 [Compound 139, (3-(1′,2′-dihydrospiro[cyclopropane-1,3′-pyrrolo[2,3-b]pyridin]-5′-yl)-2-fluorophenyl)(3-isopropylazetidin-1-yl)methanone] | 120 nM |
